Results from patent publication US20240210412A1, “SULFONYL-TRIAZOLE COMPOUNDS USEFUL AS LIGANDS AND INHIBITORS OF PROSTAGLANDIN REDUCTASE 2” (University of Virginia Patent Foundation, priority 2021, published 2024).

Columns and labels:
Experiment in all cases: SILAC LC-MS ABPP
Type in all cases: cell-based
Settings in all cases: 25 μM 2 h, live DM93 cells
O00232 = biological target: T1, O00232 (Homo sapiens, UniProt O00232)
T1 construct: endogenous in cells; host or cells: DM93
Method in brief: (§1)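 SILAC DM93 melanoma; heavy cells got SuTEx fragment 25 μM 2 h 37 °C, light got DMSO; then HHS-475 100 μM 2 h. Soluble fraction (100,000×g) CuAAC to desthiobiotin-azide (200 μM), light/heavy mixed 1:1, tryptic digest, avidin enrichment, LC-MS/MS.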

O43156 = biological target: T2, O43156 (Homo sapiens, UniProt O43156)
T2 construct: endogenous in cells; host or cells: DM93
Method in brief: as §1

P28482 = biological target: T3, P28482 (Homo sapiens, UniProt P28482)
T3 construct: endogenous in cells; host or cells: DM93 (SILAC)
Method in brief: as §1

P49792 = biological target: T4, P49792 (Homo sapiens, UniProt P49792)
T4 construct: endogenous in cells; host or cells: DM93 cells (SILAC)
T4 sequence (P49792 whole entry): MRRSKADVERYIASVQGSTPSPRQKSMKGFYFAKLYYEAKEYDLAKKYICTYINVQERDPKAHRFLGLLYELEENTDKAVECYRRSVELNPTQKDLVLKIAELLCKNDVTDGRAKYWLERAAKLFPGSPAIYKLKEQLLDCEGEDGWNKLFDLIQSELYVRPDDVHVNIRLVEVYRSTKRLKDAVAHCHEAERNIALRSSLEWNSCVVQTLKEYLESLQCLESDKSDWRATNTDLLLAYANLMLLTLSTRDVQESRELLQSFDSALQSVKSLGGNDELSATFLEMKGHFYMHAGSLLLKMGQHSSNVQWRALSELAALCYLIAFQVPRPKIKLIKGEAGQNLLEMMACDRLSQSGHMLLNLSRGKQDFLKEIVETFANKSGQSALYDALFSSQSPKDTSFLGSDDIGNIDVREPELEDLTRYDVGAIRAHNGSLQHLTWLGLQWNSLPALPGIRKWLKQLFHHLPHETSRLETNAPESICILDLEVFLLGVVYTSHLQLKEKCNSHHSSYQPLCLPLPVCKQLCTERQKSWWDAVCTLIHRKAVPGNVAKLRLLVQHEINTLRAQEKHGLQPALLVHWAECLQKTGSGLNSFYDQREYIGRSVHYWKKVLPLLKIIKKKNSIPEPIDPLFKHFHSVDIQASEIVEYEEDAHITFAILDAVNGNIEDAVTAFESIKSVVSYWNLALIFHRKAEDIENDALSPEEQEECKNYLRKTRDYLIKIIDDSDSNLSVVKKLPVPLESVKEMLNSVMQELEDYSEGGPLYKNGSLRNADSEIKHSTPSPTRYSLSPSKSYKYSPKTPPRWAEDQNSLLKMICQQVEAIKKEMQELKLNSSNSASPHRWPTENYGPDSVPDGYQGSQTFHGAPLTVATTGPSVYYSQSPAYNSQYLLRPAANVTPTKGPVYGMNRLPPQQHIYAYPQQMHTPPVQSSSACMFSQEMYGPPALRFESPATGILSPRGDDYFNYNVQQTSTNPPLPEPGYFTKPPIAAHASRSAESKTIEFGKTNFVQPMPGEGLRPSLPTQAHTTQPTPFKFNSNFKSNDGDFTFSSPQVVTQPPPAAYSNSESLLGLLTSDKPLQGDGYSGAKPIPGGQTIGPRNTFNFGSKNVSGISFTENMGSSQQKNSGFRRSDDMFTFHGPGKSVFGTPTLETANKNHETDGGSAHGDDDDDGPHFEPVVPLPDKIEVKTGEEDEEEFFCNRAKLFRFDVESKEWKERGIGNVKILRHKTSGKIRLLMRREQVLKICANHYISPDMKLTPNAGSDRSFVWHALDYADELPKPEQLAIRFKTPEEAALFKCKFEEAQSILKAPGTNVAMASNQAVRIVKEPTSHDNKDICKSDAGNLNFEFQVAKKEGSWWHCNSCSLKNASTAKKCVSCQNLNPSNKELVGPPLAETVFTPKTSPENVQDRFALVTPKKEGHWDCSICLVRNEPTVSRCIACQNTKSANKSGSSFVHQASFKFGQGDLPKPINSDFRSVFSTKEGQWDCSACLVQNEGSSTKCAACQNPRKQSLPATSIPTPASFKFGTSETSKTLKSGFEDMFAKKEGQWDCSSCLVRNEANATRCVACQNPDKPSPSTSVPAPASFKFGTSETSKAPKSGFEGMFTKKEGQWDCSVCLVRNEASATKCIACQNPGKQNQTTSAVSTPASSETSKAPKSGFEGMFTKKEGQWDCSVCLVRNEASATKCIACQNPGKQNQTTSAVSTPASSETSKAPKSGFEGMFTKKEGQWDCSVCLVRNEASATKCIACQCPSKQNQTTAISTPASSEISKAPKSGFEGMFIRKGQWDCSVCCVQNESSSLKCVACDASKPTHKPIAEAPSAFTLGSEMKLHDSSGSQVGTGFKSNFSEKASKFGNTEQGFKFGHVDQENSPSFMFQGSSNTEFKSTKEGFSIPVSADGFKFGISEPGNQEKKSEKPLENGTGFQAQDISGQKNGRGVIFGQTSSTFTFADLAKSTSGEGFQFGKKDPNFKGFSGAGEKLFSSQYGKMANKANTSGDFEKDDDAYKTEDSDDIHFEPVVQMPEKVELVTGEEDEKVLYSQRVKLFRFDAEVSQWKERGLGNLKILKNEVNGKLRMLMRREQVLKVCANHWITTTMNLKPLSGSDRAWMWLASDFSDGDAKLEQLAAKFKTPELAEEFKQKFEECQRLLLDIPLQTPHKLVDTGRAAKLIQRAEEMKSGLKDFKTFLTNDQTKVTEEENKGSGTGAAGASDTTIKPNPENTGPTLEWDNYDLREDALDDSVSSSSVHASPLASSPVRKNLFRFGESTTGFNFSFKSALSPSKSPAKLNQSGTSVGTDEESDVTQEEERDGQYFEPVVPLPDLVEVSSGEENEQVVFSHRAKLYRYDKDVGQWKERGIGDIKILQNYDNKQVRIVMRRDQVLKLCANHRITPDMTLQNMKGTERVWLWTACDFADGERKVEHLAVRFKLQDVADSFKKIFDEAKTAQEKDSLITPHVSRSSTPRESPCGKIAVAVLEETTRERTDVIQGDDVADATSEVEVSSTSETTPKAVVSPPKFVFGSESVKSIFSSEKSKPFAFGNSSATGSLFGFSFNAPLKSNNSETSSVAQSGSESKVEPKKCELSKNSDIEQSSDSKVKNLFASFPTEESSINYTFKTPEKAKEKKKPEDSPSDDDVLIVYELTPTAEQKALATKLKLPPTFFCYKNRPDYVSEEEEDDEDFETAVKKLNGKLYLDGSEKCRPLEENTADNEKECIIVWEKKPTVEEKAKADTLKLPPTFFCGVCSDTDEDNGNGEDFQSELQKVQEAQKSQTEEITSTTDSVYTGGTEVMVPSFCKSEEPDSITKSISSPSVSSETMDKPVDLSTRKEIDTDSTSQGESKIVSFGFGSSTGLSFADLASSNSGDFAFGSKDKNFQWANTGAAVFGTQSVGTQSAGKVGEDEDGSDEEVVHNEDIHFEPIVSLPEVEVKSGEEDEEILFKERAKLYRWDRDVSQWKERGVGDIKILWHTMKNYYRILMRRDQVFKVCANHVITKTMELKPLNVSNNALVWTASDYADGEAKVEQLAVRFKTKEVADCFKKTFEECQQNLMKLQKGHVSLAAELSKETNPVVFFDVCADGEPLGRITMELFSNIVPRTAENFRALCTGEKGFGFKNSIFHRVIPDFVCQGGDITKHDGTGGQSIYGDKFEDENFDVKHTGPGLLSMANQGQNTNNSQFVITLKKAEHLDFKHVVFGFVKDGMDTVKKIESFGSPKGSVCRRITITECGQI
Method in brief: as §1

Q14978 = biological target: T5, Q14978 (Homo sapiens, UniProt Q14978)
T5 construct: performing SuTEx compound screening directly in cells; endogenous in cells; host or cells: DM93 cells (SILAC), soluble fraction
Method in brief: as §1

O75521 = biological target: T6, O75521 (Homo sapiens, UniProt O75521)
T6 construct: endogenous in cells; host or cells: DM93 cells (SILAC)
Method in brief: as §1

P07814 = biological target: T7, P07814 (Homo sapiens, UniProt P07814)
T7 construct: endogenous in cells; host or cells: DM93 cells (SILAC)
T7 sequence (P07814 whole entry): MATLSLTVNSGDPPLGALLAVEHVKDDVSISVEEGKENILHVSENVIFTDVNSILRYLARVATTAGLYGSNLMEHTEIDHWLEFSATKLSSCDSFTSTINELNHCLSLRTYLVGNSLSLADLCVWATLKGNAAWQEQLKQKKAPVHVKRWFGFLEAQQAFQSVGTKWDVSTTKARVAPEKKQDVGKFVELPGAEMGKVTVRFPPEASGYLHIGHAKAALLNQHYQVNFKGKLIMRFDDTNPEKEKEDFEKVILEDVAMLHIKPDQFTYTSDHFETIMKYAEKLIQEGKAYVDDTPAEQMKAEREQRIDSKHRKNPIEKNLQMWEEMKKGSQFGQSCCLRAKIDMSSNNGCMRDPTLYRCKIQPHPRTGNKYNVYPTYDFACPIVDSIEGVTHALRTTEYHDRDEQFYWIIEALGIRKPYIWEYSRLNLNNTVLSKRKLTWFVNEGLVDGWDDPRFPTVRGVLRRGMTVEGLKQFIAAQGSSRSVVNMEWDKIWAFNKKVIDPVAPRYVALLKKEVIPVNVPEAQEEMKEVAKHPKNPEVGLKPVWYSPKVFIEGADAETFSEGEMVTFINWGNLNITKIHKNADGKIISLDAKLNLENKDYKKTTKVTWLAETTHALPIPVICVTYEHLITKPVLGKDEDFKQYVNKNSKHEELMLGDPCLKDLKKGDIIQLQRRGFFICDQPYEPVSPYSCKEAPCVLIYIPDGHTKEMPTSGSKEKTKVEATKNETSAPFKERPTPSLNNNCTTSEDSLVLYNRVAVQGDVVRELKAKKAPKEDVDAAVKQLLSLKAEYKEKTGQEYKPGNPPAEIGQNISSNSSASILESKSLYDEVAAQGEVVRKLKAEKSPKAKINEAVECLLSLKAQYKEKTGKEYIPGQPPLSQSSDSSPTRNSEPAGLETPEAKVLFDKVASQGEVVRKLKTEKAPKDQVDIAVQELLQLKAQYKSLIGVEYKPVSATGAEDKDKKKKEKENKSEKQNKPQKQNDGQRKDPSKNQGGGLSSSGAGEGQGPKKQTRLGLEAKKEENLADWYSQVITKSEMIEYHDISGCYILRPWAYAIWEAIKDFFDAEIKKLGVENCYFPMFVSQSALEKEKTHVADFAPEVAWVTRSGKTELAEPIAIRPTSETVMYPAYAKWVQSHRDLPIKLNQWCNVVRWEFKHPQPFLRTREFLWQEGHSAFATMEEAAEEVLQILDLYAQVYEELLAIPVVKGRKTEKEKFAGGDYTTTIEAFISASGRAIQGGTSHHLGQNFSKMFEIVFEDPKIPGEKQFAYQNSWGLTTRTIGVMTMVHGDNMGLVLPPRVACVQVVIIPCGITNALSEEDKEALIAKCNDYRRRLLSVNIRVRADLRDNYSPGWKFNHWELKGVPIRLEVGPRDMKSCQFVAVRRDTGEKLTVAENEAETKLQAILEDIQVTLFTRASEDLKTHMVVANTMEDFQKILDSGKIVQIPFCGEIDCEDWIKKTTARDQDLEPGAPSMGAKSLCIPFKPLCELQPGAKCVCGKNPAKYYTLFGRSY
Method in brief: as §1

P56945 = biological target: T8, P56945 (Homo sapiens, UniProt P56945)
T8 construct: Probe-modified proteins from the soluble fraction were conjugated to a desthiobiotin-azide tag; endogenous in cells; host or cells: DM93 cells (SILAC)
Method in brief: as §1

P62263 = biological target: T9, P62263 (Homo sapiens, UniProt P62263)
T9 construct: performing SuTEx compound screening directly in cells; endogenous in cells; host or cells: DM93 cells (SILAC)
Method in brief: as §1

Q9H3P7 = biological target: T10, Q9H3P7 (Homo sapiens, UniProt Q9H3P7)
T10 construct: endogenous in cells; host or cells: DM93 cells (SILAC), treated live; soluble proteome analysed
Method in brief: as §1

Q9NVE7 = biological target: T11, Q9NVE7 (Homo sapiens, UniProt Q9NVE7)
T11 construct: endogenous in cells; host or cells: DM93 cells (SILAC)
Method in brief: as §1

P30533 = biological target: T12, P30533 (Homo sapiens, UniProt P30533)
T12 construct: endogenous in cells; host or cells: DM93 (SILAC)
Method in brief: as §1

Q92889 = biological target: T13, Q92889 (Homo sapiens, UniProt Q92889)
T13 construct: endogenous in cells; host or cells: DM93 cells (SILAC), live-cell treatment
Method in brief: as §1

O00571 = biological target: T14, O00571 (Homo sapiens, UniProt O00571)
T14 construct: endogenous in cells; host or cells: DM93
Method in brief: as §1

P15559 = biological target: T15, P15559 (Homo sapiens, UniProt P15559)
T15 construct: endogenous in cells; host or cells: DM93 cells (SILAC)
T15 sequence (P15559 whole entry): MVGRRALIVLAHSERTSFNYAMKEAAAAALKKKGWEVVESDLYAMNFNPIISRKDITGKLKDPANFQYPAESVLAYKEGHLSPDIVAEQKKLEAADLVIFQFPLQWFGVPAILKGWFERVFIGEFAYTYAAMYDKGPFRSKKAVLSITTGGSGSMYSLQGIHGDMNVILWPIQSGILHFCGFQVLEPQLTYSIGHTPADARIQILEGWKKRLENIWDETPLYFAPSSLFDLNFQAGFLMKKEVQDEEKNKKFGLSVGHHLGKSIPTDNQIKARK
Method in brief: as §1

P51003 = biological target: T16, P51003 (Homo sapiens, UniProt P51003)
T16 construct: Probe-modified proteins from the soluble fraction were conjugated to a desthiobiotin-azide tag; endogenous in cells; host or cells: DM93 cells (SILAC)
Method in brief: as §1

Q9H3P2 = biological target: T17, Q9H3P2 (Homo sapiens, UniProt Q9H3P2)
T17 construct: endogenous in cells; host or cells: DM93 cells (SILAC), treated live; soluble proteome analysed
Method in brief: as §1

Q8N6H7 = biological target: T18, Q8N6H7 (Homo sapiens, UniProt Q8N6H7)
T18 construct: endogenous in cells; host or cells: DM93 cells (SILAC), live-cell treatment
Method in brief: as §1

Q: How did the “liganded tyrosine site 20” value (O00232) turn out when `O=C(NC1CC1)c1ccc(S(=O)(=O)n2cncn2)cc1` [HHS-0101, 4-((1H-1,2,4-triazol-1-yl)sulfonyl)-N-cyclopropylbenzamide] was run?
A: HHS0101.Y|HHS0301.Y|HHS0401.Y|HHS0701.Y (tyrosine sites that showed >80% reductions (SR >5) in probe labeling in cells treated with compounds (liganded sites))

Q: And the “liganded tyrosine site 51” value (O43156)?
A: HHS0101.Y|HHS0401.Y|HHS0701.Y (tyrosine sites that showed >80% reductions (SR >5) in probe labeling in cells treated with compounds (liganded sites))

Q: What about the “liganded tyrosine site 113” value (P28482) of the same compound?
A: HHS0101.Y (tyrosine sites that showed >80% reductions (SR >5) in probe labeling in cells treated with compounds (liganded sites))

Q: What about the “liganded tyrosine site 1983” value (P49792) of the same compound?
A: HHS0101.Y (tyrosine sites that showed >80% reductions (SR >5) in probe labeling in cells treated with compounds (liganded sites))

Q: And the “liganded tyrosine site 289” value (Q14978)?
A: HHS0101.Y|HHS0701.Y (tyrosine sites that showed >80% reductions (SR >5) in probe labeling in cells treated with compounds (liganded sites))

Q: What does the source list for `O=C(NCC1CC1)c1ccc(S(=O)(=O)n2cncn2)cc1` [HHS-0201, 4-((1H-1,2,4-triazol-1-yl)sulfonyl)-N-(cyclopropylmethyl)benzamide]?
A: liganded tyrosine site 285 (O75521): HHS0201.Y|HHS0301.Y|HHS0401.Y (tyrosine sites that showed >80% reductions (SR >5) in probe labeling in cells treated with compounds (liganded sites)); liganded tyrosine site 864 (P07814): HHS0201.Y (tyrosine sites that showed >80% reductions (SR >5) in probe labeling in cells treated with compounds (liganded sites)); liganded tyrosine site 267 (P56945): HHS0201.Y (tyrosine sites that showed >80% reductions (SR >5) in probe labeling in cells treated with compounds (liganded sites)); liganded tyrosine site 72 (P62263): HHS0201.Y|HHS0301.Y (tyrosine sites that showed >80% reductions (SR >5) in probe labeling in cells treated with compounds (liganded sites)); liganded tyrosine site 293 (Q9H3P7): HHS0201.Y|HHS0301.Y (tyrosine sites that showed >80% reductions (SR >5) in probe labeling in cells treated with compounds (liganded sites)); liganded tyrosine site 338 (Q9NVE7): HHS0201.Y|HHS0401.Y (tyrosine sites that showed >80% reductions (SR >5) in probe labeling in cells treated with compounds (liganded sites))

Q: How did the “liganded tyrosine site 336” value (P30533) turn out when `O=C(NC1CCCCC1)c1ccc(S(=O)(=O)n2cncn2)cc1` [HHS-0301, 4-((1H-1,2,4-triazol-1-yl)sulfonyl)-N-cyclohexylbenzamide] was run?
A: HHS0301.Y|HHS0701.Y (tyrosine sites that showed >80% reductions (SR >5) in probe labeling in cells treated with compounds (liganded sites))

Q: What about the “liganded tyrosine site 344” value (Q92889) of the same compound?
A: HHS0301.Y|HHS0401.Y (tyrosine sites that showed >80% reductions (SR >5) in probe labeling in cells treated with compounds (liganded sites))

Q: How did the “liganded tyrosine site 266” value (O00571) turn out when `O=C(NCc1ccccc1)c1ccc(S(=O)(=O)n2cncn2)cc1` [HHS-0401, 4-((1H-1,2,4-triazol-1-yl)sulfonyl)-N-benzylbenzamide] was run?
A: HHS0401.Y (tyrosine sites that showed >80% reductions (SR >5) in probe labeling in cells treated with compounds (liganded sites))

Q: What about the “liganded tyrosine site 76” value (P15559) of the same compound?
A: HHS0401.Y|HHS0701.Y (tyrosine sites that showed >80% reductions (SR >5) in probe labeling in cells treated with compounds (liganded sites))

Q: And the “liganded tyrosine site 327” value (P51003)?
A: HHS0401.Y|HHS0701.Y (tyrosine sites that showed >80% reductions (SR >5) in probe labeling in cells treated with compounds (liganded sites))

Q: What about the “liganded tyrosine site 324” value (Q9H3P2) of the same compound?
A: HHS0401.Y|HHS0701.Y (tyrosine sites that showed >80% reductions (SR >5) in probe labeling in cells treated with compounds (liganded sites))

Q: `O=C(c1ccc(S(=O)(=O)n2cncn2)cc1)N1CCC(c2ccccc2)CC1` [HHS-0701, (4-((1H-1,2,4-triazol-1-yl)sulfonyl)phenyl)(4-phenylpiperidin-1-yl)methanone] was tested. Which “liganded tyrosine site 445” value (Q8N6H7) did it give?
A: HHS0701.Y (tyrosine sites that showed >80% reductions (SR >5) in probe labeling in cells treated with compounds (liganded sites))
